In ChEMBL document CHEMBL1641597, “An efficient one-pot synthesis of benzothiazolo-4β-anilino-podophyllotoxin congeners: DNA topoisomerase-II inhibition and anticancer activity” (Bioorg Med Chem Lett, 2011):
Where a name gives a salt, the structure may show the parent alone. Calls of active or inactive are those of the source. No cut-off for these calls is given here.

Experiments:
[1] = target: DNA topoisomerase 2-alpha (Rattus norvegicus) (UniProt P41516); assay: Inhibition of rat brain topoisomerase 2 assessed as relaxation of supercoiled pBR322 DNA
DNA topoisomerase 2-alpha (Rattus norvegicus), sequence (P41516 whole entry): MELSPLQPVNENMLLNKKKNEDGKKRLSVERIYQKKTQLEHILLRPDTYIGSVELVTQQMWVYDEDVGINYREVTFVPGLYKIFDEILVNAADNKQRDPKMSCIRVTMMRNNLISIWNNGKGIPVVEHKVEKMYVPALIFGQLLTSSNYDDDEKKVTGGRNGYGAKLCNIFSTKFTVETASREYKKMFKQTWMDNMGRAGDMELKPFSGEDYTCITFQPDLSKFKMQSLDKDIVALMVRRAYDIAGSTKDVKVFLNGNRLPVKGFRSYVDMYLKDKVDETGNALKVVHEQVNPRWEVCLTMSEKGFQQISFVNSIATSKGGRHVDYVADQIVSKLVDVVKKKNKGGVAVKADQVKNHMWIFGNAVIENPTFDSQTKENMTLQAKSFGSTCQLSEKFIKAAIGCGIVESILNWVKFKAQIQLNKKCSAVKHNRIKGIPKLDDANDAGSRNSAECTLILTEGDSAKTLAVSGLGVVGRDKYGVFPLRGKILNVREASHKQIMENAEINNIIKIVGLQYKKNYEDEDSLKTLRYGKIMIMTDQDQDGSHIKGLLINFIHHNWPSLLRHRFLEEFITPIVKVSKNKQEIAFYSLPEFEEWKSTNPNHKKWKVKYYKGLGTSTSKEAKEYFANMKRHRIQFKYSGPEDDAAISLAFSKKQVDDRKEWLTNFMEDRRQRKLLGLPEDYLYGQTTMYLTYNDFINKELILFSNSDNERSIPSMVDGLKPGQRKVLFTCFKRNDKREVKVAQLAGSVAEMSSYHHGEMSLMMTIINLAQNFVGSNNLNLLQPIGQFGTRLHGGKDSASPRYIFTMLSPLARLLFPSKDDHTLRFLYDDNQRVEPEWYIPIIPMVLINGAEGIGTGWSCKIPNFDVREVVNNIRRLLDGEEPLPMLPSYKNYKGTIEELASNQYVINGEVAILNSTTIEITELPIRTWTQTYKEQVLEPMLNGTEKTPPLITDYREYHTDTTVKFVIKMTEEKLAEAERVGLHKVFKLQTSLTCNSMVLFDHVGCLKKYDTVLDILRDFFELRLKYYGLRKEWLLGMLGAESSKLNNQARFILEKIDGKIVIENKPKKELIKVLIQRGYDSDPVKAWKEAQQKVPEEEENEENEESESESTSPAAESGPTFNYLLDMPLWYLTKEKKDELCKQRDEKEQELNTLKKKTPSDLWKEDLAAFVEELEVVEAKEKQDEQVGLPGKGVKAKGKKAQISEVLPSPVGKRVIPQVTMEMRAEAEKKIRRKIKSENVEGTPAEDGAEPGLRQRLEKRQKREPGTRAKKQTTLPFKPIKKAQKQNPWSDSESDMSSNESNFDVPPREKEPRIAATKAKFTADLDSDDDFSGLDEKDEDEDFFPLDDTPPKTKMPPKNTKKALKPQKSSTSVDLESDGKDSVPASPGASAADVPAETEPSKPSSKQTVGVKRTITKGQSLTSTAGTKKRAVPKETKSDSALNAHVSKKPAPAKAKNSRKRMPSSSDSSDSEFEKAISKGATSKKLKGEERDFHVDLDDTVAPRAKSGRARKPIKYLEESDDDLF

COLO 205 = assay: Cytotoxicity against human COLO205 assessed as inhibition of cell growth; type: functional, cell-based
HOP-62 = assay: Cytotoxicity against human HOP62 assessed as inhibition of cell growth; type: functional, cell-based
HT-1080 = assay: Cytotoxicity against human HT1080 assessed as inhibition of cell growth; type: functional, cell-based
[2] = Cytotoxicity against human DWD assessed as inhibition of cell growth; type: functional

SMILES	inhibition [1]	IC50 (COLO 205) [µM]	IC50 (HOP-62) [µM]	IC50 (HT-1080) [µM]	IC50 [2] [µM]
COc1ccc2nc(-c3ccc(N[C@@H]4c5cc6c(cc5[C@@H](c5cc(OC)c(O)c(OC)c5)[C@H]5C(=O)OC[C@@H]54)OCO6)cc3)sc2c1	Active				
COc1cc([C@@H]2c3cc4c(cc3[C@@H](Nc3ccc(-c5nc6ccccc6s5)c(Cl)c3)[C@H]3COC(=O)[C@H]23)OCO4)cc(OC)c1O		8.3	8.6	> 80	6.5
COc1cccc2c1C(=O)c1c(O)c3c(c(O)c1C2=O)C[C@@](O)(C(=O)CO)C[C@@H]3O[C@H]1C[C@H](N)[C@H](O)[C@H](C)O1 [DOXORUBICIN HYDROCHLORIDE]		5.1	5.4	4.7	2.8
COc1cc([C@@H]2c3cc4c(cc3[C@@H](Nc3ccc(-c5nc6ccccc6s5)cc3Br)[C@H]3COC(=O)[C@H]23)OCO4)cc(OC)c1O	Active				
COc1cc([C@@H]2c3cc4c(cc3[C@H](O)[C@H]3COC(=O)[C@H]23)OCO4)cc(OC)c1OC [PODOFILOX]		5	13.1	8.1	6.1
COc1ccc2nc(-c3ccc(N[C@@H]4c5cc6c(cc5[C@@H](c5cc(OC)c(OC)c(OC)c5)[C@H]5C(=O)OC[C@@H]54)OCO6)cc3)sc2c1		7	15.2	9.5	5.2
COc1cc([C@@H]2c3cc4c(cc3[C@@H](Nc3ccc(-c5nc6c(Cl)cccc6s5)cc3)[C@H]3COC(=O)[C@H]23)OCO4)cc(OC)c1O		8.3	10.1	> 80	9.1
COc1cc([C@@H]2c3cc4c(cc3[C@@H](Nc3ccc(-c5nc6ccccc6s5)cc3)[C@H]3COC(=O)[C@H]23)OCO4)cc(OC)c1OC	Active	8.1	> 80	8.2	22
COc1cc([C@@H]2c3cc4c(cc3[C@@H](Nc3ccc(-c5nc6ccccc6s5)cc3)[C@H]3COC(=O)[C@H]23)OCO4)cc(OC)c1O	Active	2.7	30.1	9.7	2.3
COc1cc([C@@H]2c3cc4c(cc3[C@@H](Nc3ccc(-c5nc6c(Cl)cccc6s5)cc3)[C@H]3COC(=O)[C@H]23)OCO4)cc(OC)c1OC		7.1	60.3	9.1	7.3
